Experimental data from patent US10189857B2, “Positive allosteric modulators of the muscarinic acetylcholine receptor M4” (Vanderbilt University, priority 2016, dated 2019).

Biological target: T1, Human M4 (Homo sapiens, UniProt P08173)
T1 construct: expressed in transfected cells; host or cells: CHO-K1 (American Type Culture Collection), stably expressing M4 and Gqi5
T1 sequence (P08173 1-479): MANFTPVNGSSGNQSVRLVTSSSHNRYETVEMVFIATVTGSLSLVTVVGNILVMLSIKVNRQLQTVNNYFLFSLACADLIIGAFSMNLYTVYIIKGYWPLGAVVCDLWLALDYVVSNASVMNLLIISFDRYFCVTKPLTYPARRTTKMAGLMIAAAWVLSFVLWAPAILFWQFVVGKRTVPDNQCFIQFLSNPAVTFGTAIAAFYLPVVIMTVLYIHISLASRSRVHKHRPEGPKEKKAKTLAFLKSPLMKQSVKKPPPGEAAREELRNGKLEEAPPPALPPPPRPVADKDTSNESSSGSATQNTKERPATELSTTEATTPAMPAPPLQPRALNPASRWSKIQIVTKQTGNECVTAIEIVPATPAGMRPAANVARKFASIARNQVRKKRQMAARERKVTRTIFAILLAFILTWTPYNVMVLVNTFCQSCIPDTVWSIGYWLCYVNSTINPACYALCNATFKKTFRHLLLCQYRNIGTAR
Test: mAChR M4 cell-based functional assay (calcium flux, potentiation of EC20 acetylcholine response)
Conditions: M4/Gqi5/CHO-K1 cells; for Emax at 30 µM: % ACh maximum at 30 μM; for EC50: PAM activity as increase in EC20 acetylcholine response
Description: Human M4 cDNA, along with the chimeric G protein Gqi5, were transfected into Chinese hamster ovary (CHO-K1) cells purchased from the American Type Culture Collection using Lipofectamine2000. M4/Gqi5/CHO cells were grown in Ham's F-12 medium containing 10% heat-inactivated fetal bovine serum (FBS), 20 mM HEPES, 500 μg/mL G418 sulfate, and 200 μg/mL Hygromycin B.
For high throughput measurement of agonist-evoked increases in intracellular calcium, CHO-K1 cells stably expressing muscarinic receptors were plated in growth medium lacking G418 and hygromycin at 15,000 cells/20 μL/well in Greiner 384-well black-walled, tissue culture (TC)-treated, clear-bottom plates (VWR). Cells were incubated overnight at 37° C. and 5% CO2. The next day, cells were washed using an ELX 405 (BioTek) with assay buffer; the final volume was then aspirated to 20 μL. Next, 20 μL of a 2.3 μM stock of Fluo-4/acetoxymethyl ester (Invitrogen, Carlsbad, Calif.), prepared as a 2.3 mM stock in DMSO and mixed in a 1:1 ratio with 10% (w/v) Pluronic F-127 and diluted in assay buffer, was added to the wells and the cell plates were incubated for 50 min at 37° C. and 5% CO2. Dye was removed by washing with the ELX 405 and the final volume was aspirated to 20 μL. Compound master plates were formatted in an 11 point concentration-response curve (CRC) format (1:3 dilutions) in 100% DMSO with a starting concentration of 10 mM using a BRAVO liquid handler (Agilent). Test compound CRCs were then transferred to daughter plates (240 nL) using the Echo acoustic plate reformatter (Labcyte, Sunnyvale, Calif.) and then diluted into assay buffer (40 μL) to a 2× stock using a Thermo Fisher Combi (Thermo Fisher Scientific, Waltham, Mass.).
Calcium flux was measured using the Functional Drug Screening System (FDSS) 6000 or 7000 (Hamamatsu Corporation, Tokyo, Japan) as an increase in the fluorescent static ratio. Compounds were applied to cells (20 μL, 2×) using the automated system of the FDSS at 2-4 seconds into the protocol and the data were collected at 1 Hz. At approximately 144 s, […] an EC20 concentration of the muscarinic receptor agonist acetylcholine was added (5×), followed by the addition of 12 μL of an EC80 concentration of acetylcholine at approximately the 230 s time point (5×). Agonist activity was analyzed as a concentration-dependent increase in calcium mobilization upon compound addition. Positive allosteric modulator activity was analyzed as a concentration-dependent increase in the EC20 acetylcholine response. Antagonist activity was analyzed as a concentration-dependent decrease in the EC80 acetylcholine response. Concentration-response curves were generated using a four-parameter logistical equation in XLFit curve fitting software (IDBS, Bridgewater, N.J.) for Excel (Microsoft, Redmond, Wash.) or Prism (GraphPad Software, Inc., San Diego, Calif.) or the Domatics software platform (Domatics, Bishop's Stortford, UK).
Compounds were synthesized as described above. Activity (EC50 and Emax) was determined in the mAChR M4 cell-based functional assay as described above and the data are shown in Table 2. The compound numbers correspond to the compound numbers used in Table 1.

SMILES | Emax at 30 µM | EC50
Cc1c2c(N)c(C(=O)NC3Cc4ccccc4C3)sc2nn2cnnc12 [Compound 3, 8-amino-N-(2,3-dihydro-1H-inden-2-yl)-9-methylthieno[3,2-e][1,2,4]triazolo[4,3-b]pyridazine-7-carboxamide] | 82.3% | 90 nM
COc1ccc(CNC(=O)c2sc3nn4cnnc4c(C)c3c2N)cc1 [Compound 4, 8-amino-N-(4-methoxybenzyl)-9-methylthieno[3,2-e][1,2,4]triazolo[4,3-b]pyridazine-7-carboxamide] | 80.6% | 670 nM
Cc1c2c(N)c(C(=O)NC3CCC3)sc2nn2cnnc12 [Compound 6, 8-amino-N-cyclobutyl-9-methylthieno[3,2-e][1,2,4]triazolo[4,3-b]pyridazine-7-carboxamide] | 71.8% | 890 nM
Cc1c2c(N)c(C(=O)NC3CCN(c4ccccc4)CC3)sc2nn2cnnc12 [Compound 7, 8-amino-9-methyl-N-(1-phenylpiperidin-4-yl)thieno[3,2-e][1,2,4]triazolo[4,3-b]pyridazine-7-carboxamide] | 42.5% | 7000 nM
Cc1c2c(N)c(C(=O)NCc3cccc(F)c3)sc2nn2cnnc12 [Compound 8, 8-amino-N-(3-fluorobenzyl)-9-methylthieno[3,2-e][1,2,4]triazolo[4,3-b]pyridazine-7-carboxamide] | 78% | 370 nM

The next lines start with the values.

Emax at 30 µM | EC50 | SMILES
38.8% | 3330 nM | Cc1c2c(N)c(C(=O)N3CCC(c4ccccc4)C3)sc2nn2cnnc12 (stereo not drawn) [Compound 1, (8-amino-9-methylthieno[3,2-e][1,2,4]triazolo[4,3-b]pyridazin-7-yl)(3-phenylpyrrolidin-1-yl)methanone]
72.2% | 9670 nM | Cc1c2c(N)c(C(=O)N3CCCC3)sc2nn2cnnc12 [Compound 2, (8-amino-9-methylthieno[3,2-e][1,2,4]triazolo[4,3-b]pyridazin-7-yl)(pyrrolidin-1-yl)methanone]
74.2% | 290 nM | Cc1c2c(N)c(C(=O)NC3CC3)sc2nn2cnnc12 [Compound 5, 8-amino-N-cyclopropyl-9-methylthieno[3,2-e][1,2,4]triazolo[4,3-b]pyridazine-7-carboxamide]
76.3% | 1120 nM | Cc1c2c(N)c(C(=O)NCc3ccc(F)cc3)sc2nn2cnnc12 [Compound 9, 8-amino-N-(4-fluorobenzyl)-9-methylthieno[3,2-e][1,2,4]triazolo[4,3-b]pyridazine-7-carboxamide]
